Values of other authors as cited in patent US6436889B1, “Detergent compositions” (Unilever Home & Personal Care USA division of Conopco, Inc., priority 1999, dated 2002).
Like-named read-outs stand apart in the source and are kept apart here.

[1] = at 20° C., other common materials

| Compound | Water Solubility [1] [g/100 g] | Water Solubility (grams of solid required to form a saturated solution in 100 grams of water at 20° C., highly water-soluble materials) [g/100 g] |
| --- | --- | --- |
| O=BO[O-].[Na+] [Sodium perborate anhydrous] | 3.7 |  |
| O=P(O)(O)OP(=O)(O)OP(=O)(O)O [Sodium tripolyphosphate anhydrous] | 15 |  |
| NC(N)=O [Urea] |  | >100 |
